# Like-named read-outs stand apart in the source and are kept apart here.
# Columns and labels:
# [1] = system: rhIL-2 stimulated STAT5 phosphorylation in isolated human T cells; test: Human T Cell Assay: Inhibition of pSTAT5; assay type: cell-based
# Protocol: Human T Cell Assay: Inhibition of pSTAT5
# An assay measuring the efficacy of JAK inhibitors on the functional response of recombinant human interleukin-2 (rhIL-2) stimulated STAT5 phosphorylation in isolated human T cells.
# Human whole blood from individual donors was collected from the phlebotomy unit on-site. Peripheral venous blood (30-60 mL) from healthy volunteers of either sex was used as the source of T cells. T cell isolation from venous whole blood is routinely performed in a class II microbiological safety cabinet. Each sample was collected into between 3 and 6 10 mL Sodium Heparin Vacutainer tubes (BD #367874). The blood was poured into sterile 50 mL conicals (Corning #430828) and incubated with the T cell Rosette Sep Cocktail (Stemcell Technologies #15061) at 50 μL/mL antibody/blood ratio for 20 min. with shaking at room temperature. The blood/antibody mixture was then diluted 1:2 with PBS (Pfizer media prep)/2% FBS (Sigma #F4135) and 30 mL of the mixture was layered onto 15 mL Ficoll-Hypaque (GE Healthcare #17-1440-03) in 50 mL conical tubes. The tubes were then centrifuged at 1200×g for 20 min. at room temperature with no brake. Following centrifugation the T cells formed a buffy coat between the Ficoll-Hypaque and plasma layers. The plasma above the buffy coats was removed to within 5 mm of the buffy coat using a sterile Pasteur pipette. The buffy coats were then collected into fresh sterile 50 mL conical tubes containing 25 mL PBS/2% FBS (2 buffy coats per 50 mL conical). PBS/2% FBS was added to the buffy coat cells such that the final volume in the tube was 50 mL. The tubes were then centrifuged at 200×g for 15 min. at room temperature. The supernatant was discarded and the pellet re-suspended in 10-20 mL of DMEM (Pfizer media prep) Assay media/0.2% BSA (Miltenyi #130-091-376). A differential cell count was performed using a haemacytometer and cells were diluted to 1.1×10^6 T cells/ml in DMEM/0.2% BSA media. Compounds (10 mM-0.3 μM) were diluted with Hanks Balanced Salt Solution (HBSS) (Sigma #H6648) at 1:100 dilution. Immediately following cell isolation and compound dilution, 90 μl/well of T cells (˜1×10^6/ml) in assay medium (DMEM+0.2% BSA) was added to the VWR Deep well V bottom plate (#3906-520-300). 10 μl/well of compound (final concentration range of 10 μM-0.3 nM with 0.1% DMSO) or 0.1% DMSO in HBSS as controls was added to the appropriate wells. Plates were incubated for 1 hour at 37° C., 5% CO2 incubator. 10 μl of 3.3 μg/mL rhIL-2 (R&D Systems #202-IL) was added to the cells (300 ng/ml final assay concentration). Wells containing T cells, medium with 0.1% DMSO and no rhIL-2 were used as background controls. […]
# (§1) Data were collected and transformed into percent inhibition and calculated using the following formula: […]
# [2] = system: rhIFNγ stimulated STAT-3 phosphorylation in the A549 human epithelial cell line; test: A549 Cell Assay: Inhibition of pSTAT3; assay type: cell-based; details: A549 cells
# Protocol: A549 Cell Assay: Inhibition of pSTAT3
# An assay measuring the efficacy of JAK inhibitors on the functional response of recombinant human interferon γ (rhIFNγ) stimulated STAT-3 phosphorylation in the A549 human epithelial cell line.
# A549 cells (ATCC #CCL-185), were plated at 30,000 cells/well in 96 well flat bottomed tissue culture plates (BD#353072) in 200 μL of growth medium (DMEM, Pfizer media prep, with 10% Fetal Bovine Serum, Sigma #F4135, 2 mM L-Glutamine, Pfizer media prep, 100 U/mL penicillin, Pfizer media prep, and 200 μg/ml streptomycin, Pfizer media prep), and cultured at 37° C., 5% CO2 incubator for 18 hours. Growth medium was removed by vacuum aspiration (V&P Scientific #vp187 bp-60), and 90 μL of pre-warmed assay medium (DMEM with 0.2% BSA, Miltenyi #130-091-376) was added to each well and incubated for 15 minutes at 37° C. 10 μL of vehicle control or test compound (final concentration range of 0.3 nM to 10 μM with 0.1% DMSO) was added to the cells. Plates were incubated at 37° C. for 1 hour. After compound incubation, 10 μL of 220 ng/mL recombinant human IFNγ (R&D Systems #285-IF, final rhIFNγ concentration of 20 ng/mL) was added to the cells and plates were incubated for 30 minutes at 37° C. Wells containing A549 cells, medium with 0.1% DMSO and no rhIFNγ were used as background controls. After rhIFNγ stimulation, media was aspirated from each well and 35 μL/well of iced-cold MSD lysis buffer containing protease and phosphatase inhibitors from Phospho-STAT3 Tyr705 assay kit (Meso-Scale Discovery #K150DID) was added to each well. Plates were incubated at 4° C. with shaking for 30 minutes. Cell lysates were assayed following the MSD Phospho-STAT3 Tyr705 assay kit protocol to detect pSTAT3.
# as §1
# [3] = biological target: TYK2 (Homo sapiens (Human), UniProt P29597); test: JAK Caliper Enzyme Assay at 1 mM ATP (TYK2); assay type: biochemical; details: Caliper assay at 1 mM ATP
# [4] = biological target: JAK3 (Homo sapiens (Human), UniProt P52333); test: JAK Caliper Enzyme Assay at 1 mM ATP (JAK3); assay type: biochemical; details: Caliper assay at 1 mM ATP
# [5] = biological target: JAK1 (Homo sapiens (Human), UniProt P23458); test: JAK Caliper Enzyme Assay at 1 mM ATP (JAK1); assay type: biochemical; details: Caliper assay at 1 mM ATP
# [6] = biological target: JAK2 (Homo sapiens (Human), UniProt O60674); test: JAK Caliper Enzyme Assay at 1 mM ATP (JAK2); assay type: biochemical; details: Caliper assay at 1 mM ATP
# Sequence of JAK2 (O60674 whole entry, species assumed): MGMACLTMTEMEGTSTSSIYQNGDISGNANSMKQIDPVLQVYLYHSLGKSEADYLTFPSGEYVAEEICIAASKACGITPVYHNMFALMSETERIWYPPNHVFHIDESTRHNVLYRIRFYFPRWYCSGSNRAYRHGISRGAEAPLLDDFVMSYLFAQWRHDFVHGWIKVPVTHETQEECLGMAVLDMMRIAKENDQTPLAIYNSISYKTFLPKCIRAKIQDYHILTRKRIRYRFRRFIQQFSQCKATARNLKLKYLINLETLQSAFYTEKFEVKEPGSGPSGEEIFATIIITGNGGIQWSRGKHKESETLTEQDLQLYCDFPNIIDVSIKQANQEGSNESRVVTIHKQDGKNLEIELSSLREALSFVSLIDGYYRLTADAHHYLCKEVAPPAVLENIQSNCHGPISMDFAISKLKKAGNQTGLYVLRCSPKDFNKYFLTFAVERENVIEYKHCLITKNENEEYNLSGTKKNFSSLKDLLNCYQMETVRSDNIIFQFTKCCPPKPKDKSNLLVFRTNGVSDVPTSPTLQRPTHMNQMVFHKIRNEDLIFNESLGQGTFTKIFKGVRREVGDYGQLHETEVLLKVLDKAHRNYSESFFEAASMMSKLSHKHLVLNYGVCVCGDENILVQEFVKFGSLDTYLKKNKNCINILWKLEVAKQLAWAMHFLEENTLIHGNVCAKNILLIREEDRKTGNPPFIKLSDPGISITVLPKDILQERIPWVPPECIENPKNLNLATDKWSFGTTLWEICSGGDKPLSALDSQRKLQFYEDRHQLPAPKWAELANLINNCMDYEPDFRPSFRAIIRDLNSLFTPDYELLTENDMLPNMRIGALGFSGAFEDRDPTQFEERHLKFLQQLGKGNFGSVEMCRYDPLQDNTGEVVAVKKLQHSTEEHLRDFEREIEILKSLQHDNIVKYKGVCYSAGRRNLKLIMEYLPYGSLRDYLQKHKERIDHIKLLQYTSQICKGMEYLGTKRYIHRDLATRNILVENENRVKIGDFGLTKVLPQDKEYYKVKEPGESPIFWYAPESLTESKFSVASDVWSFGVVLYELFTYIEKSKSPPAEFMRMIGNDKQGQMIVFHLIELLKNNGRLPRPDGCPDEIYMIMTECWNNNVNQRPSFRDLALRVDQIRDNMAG
# Sequence of JAK3 (P52333 whole entry, species assumed): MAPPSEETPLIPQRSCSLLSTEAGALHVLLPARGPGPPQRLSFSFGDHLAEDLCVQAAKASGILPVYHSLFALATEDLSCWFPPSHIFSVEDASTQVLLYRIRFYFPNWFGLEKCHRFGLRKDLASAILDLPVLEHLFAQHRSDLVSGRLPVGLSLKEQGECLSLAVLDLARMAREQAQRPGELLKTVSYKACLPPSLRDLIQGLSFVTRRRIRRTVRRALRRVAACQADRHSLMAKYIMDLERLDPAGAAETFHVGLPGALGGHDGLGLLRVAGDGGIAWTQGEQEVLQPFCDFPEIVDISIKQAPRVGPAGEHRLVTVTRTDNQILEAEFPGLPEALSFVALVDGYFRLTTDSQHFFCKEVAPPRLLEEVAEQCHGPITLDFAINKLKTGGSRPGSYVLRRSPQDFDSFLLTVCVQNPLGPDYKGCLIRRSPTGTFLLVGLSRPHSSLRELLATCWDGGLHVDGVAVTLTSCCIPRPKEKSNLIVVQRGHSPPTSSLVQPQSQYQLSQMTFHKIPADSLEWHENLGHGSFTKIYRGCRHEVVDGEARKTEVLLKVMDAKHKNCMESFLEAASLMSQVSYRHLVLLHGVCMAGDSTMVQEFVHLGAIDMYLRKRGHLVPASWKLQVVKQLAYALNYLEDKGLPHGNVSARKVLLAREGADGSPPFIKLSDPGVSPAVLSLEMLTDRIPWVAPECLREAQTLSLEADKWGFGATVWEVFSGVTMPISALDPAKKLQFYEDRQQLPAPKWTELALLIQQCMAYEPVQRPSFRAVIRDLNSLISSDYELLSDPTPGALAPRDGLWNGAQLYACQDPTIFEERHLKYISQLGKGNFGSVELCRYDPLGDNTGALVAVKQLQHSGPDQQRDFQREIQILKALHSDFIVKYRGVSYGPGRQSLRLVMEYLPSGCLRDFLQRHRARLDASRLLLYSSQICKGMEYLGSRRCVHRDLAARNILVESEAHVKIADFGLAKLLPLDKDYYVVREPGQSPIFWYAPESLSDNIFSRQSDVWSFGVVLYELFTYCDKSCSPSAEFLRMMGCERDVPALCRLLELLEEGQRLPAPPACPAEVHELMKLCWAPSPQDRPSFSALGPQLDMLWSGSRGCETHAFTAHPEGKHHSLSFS
# Sequence of JAK1 (P23458 whole entry, species assumed): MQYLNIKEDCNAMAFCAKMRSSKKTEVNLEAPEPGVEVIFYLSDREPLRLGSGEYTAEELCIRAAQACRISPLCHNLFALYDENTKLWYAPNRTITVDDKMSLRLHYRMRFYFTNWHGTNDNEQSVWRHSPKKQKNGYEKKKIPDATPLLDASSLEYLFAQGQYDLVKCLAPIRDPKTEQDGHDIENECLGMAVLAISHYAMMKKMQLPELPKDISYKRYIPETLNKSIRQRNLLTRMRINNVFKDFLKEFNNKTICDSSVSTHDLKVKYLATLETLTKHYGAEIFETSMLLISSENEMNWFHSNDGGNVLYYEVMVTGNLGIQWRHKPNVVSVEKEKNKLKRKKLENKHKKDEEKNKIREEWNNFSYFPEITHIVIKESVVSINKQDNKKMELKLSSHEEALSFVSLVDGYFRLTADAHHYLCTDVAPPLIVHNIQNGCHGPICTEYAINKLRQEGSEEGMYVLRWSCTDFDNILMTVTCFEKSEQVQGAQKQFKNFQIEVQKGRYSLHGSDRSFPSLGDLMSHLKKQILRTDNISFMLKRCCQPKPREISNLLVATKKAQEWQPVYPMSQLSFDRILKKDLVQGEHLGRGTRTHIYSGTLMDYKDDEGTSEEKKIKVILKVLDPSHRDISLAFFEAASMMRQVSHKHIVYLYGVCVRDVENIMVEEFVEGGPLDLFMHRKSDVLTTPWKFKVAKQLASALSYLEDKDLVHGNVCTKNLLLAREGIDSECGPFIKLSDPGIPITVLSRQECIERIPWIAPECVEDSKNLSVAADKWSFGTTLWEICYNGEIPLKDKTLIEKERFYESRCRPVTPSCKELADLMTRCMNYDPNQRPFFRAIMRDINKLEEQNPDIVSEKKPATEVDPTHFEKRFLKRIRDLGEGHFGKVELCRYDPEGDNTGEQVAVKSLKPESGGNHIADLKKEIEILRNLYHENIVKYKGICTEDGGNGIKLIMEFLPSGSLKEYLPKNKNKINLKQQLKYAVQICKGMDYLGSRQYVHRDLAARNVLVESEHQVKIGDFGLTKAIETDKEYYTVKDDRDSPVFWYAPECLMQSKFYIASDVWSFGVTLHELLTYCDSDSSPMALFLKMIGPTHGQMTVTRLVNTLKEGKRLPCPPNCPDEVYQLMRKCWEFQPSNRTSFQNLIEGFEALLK
# Sequence of TYK2 (P29597 whole entry, species assumed): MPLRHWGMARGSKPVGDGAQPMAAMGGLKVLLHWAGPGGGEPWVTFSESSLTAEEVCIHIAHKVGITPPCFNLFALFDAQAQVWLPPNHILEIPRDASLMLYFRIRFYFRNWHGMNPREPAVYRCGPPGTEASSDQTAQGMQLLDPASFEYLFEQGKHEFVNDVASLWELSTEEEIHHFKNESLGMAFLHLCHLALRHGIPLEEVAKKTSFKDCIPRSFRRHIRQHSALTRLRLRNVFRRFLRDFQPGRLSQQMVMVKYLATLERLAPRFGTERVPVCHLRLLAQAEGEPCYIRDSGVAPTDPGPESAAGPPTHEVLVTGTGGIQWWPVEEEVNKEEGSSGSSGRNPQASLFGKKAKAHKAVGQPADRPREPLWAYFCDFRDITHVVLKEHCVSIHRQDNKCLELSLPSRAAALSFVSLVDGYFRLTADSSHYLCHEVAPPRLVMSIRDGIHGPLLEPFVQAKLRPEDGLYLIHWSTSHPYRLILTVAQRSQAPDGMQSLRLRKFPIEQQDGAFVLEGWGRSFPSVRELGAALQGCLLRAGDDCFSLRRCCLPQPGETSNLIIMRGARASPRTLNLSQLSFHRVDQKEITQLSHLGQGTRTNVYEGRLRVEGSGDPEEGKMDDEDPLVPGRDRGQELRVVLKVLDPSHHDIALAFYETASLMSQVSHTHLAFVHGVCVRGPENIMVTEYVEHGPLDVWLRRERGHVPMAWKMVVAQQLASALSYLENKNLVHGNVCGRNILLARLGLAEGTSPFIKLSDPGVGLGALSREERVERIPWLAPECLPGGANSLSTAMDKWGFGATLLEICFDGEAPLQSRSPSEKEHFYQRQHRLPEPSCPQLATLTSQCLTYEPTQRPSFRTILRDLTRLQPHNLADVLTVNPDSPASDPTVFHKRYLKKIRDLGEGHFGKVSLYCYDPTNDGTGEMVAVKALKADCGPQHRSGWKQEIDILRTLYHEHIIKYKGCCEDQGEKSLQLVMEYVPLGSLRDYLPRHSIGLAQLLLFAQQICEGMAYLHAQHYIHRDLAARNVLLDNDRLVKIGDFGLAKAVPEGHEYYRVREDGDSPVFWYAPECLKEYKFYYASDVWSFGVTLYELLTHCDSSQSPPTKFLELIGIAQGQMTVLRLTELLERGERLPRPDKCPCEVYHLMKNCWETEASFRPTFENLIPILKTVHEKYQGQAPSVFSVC
IC50 ([1]; T-cell) [nM],IC50 ([2]; Homo sapiens) [nM],IC50 [3] [nM],IC50 [4] [nM],IC50 [5] [nM],IC50 [6] [nM],SMILES,IC50 [1] [nM],IC50 [2] [nM]
,,,,,,"CNC(=O)c1n[nH]c2cc(-c3cc(F)c(O)cc3CC(F)(F)F)nc(NCc3ccccc3N(C)S(C)(=O)=O)c12 [Example 20, 6-[5-fluoro-4-hydroxy-2-(2,2,2-trifluoroethyl)phenyl]-N-methyl-4-({2-[methyl(methylsulfon-yl)amino]benzyl}ami-no)-1H-pyrazolo[4,3-c]pyridine-3-carboxamide]",31.9,18.8
1090,1580,,,,,"CN(C)CCNC(=O)N1CCc2[nH]c(-c3n[nH]c4nc(-c5cc(F)c(O)cc5CC(F)(F)F)nc(NCc5cc(O)ccc5N(C)S(C)(=O)=O)c34)nc2C1 [Example 171, N-[2-(Dimethylamino)ethyl]-2-{6-[5-fluoro-4-hydroxy-2-(2,2,2-trifluoroethyl)phenyl]-4-({5-hydroxy-2-[methyl(methylsulfonyl)amino]benzyl}amino)-1H-pyrazolo[3,4-d]pyrimidin-3-yl}-1,4,6,7-tetrahydro-5H-imidazo[4,5-c]pyridine-5-carboxamide]",,
,,126,322,20.9,97.4,"Cc1ccc(-c2nnc(-c3n[nH]c4cc(-c5cc(F)c(O)cc5CC(F)(F)F)nc(NCc5ccccc5N(C)S(C)(=O)=O)c34)[nH]2)cn1 [Example 166, N-{2-[({6-[5-fFuoro-4-hydroxy-2-(2,2,2-trifluoroethyl)phenyl]-3-[5-(6-methylpyridin-3-yl)-4H-1,2,4-triazol-3-yl]-1H-pyrazolo[4,3-c]pyridin-4-yl}amino)methyl]phenyl}-N-methylmethanesulfonamide]",591,697
3900,3020,,,,,"Cc1nnc(-c2n[nH]c3cc(-c4cc(F)c(O)cc4CC(F)(F)F)nc(NCc4ccccc4N(C)S(C)(=O)=O)c23)[nH]1 [Example 164, N-{2-[({6-[5-Fluoro-4-hydroxy-2-(2,2,2-trifluoroethyl)phenyl]-3-(5-methyl-4H-1,2,4-triazol-3-yl)-1H-pyrazolo[4,3-c]pyridin-4-yl}amino)methyl]phenyl}-N-methylmethanesulfonamide]",,

# Source: patent US9518052B2, “Pyrazolopyridines and pyrazolopyrimidines” (Pfizer Inc., priority 2014, dated 2016)
